Drawing on US7560591B2, “Benzamidine derivatives having anti-inflammatory and immunosuppressive activity” (Rotta Research Laboratorium S.p.A., priority 2001, dated 2009), this text covers IC50 and melting point for two compounds.

In series [1] the test system is formation of NO, measured as NO2− (nitrites). Description: Inhibition of NO (nitrite) formation in rabbit joint chondrocytes stimulated by IL-1β. It is filed as cell-based. Conditions: Oryctolagus cuniculus, Chondrocyte, IL-1β 1 ng/ml, 48 hours, NO determined as nitrites. The procedure:
(§1) a) The activity in inhibiting the formation of NO, measured as NO2^− (nitrites), PGE2, and neutral protease, was investigated in vitro on culture broths of rabbit joint chondrocytes stimulated by cytokine IL-1β (1 ng/ml) for 48 hours. For the preparation of the chondrocytes, the method described by Berenbaum et al [FEBS Letters 340, 51-55 (1994)] was followed. Briefly, fragments of cartilage removed under sterile conditions from the heads of rabbit shoulder, hip and knee joints were chopped finely and digested at 37° C. by hyaluronidase, trypsin and collagenase solutions, giving rise, after filtration on sterile gauze and centrifuging at 600×g and suitable dilution with 10% DMEM-FCS, to a concentration of approximately 1×10^5 cells per well. The cells were kept in these conditions until confluence (about 15 days), the broth being changed every 3 days. At this point, the products under test, dissolved in the medium, were added to each test sample and, after 20 minutes, 350 μl IL-1β was added in order to have a final concentration of 1 ng/ml. The duration of the stimulation was 48 hours at 37° C. (incubation air-CO2 7%). Measurement of the nitrites, as described by Green et al. [Anal. Biochem. 126, 131-138 (1982)], and of the PGE2s by RIA measurement, was then performed on the cell supernatant fluid. The measurement of the neutral proteases was performed in the cell supernatant fluid containing the p-aminophenyl mercury acetate (APMA) activator with the use of azocoll as the substrate and with incubation at 37° C. for 17 h as described by Chavira et al. [Anal. Biochem. 136, 446-450 (1984)]. In order to evaluate the direct inhibitory effect of the compounds under test on the hydrolytic activity of the cell supernatant fluid, they were added to the supernatant fluid containing the proteases induced by IL-1β and already activated by AMPA.
(§2) The results obtained are shown in Table 3, in which the IC50, that is, the concentration (micromolar) of antagonist which can inhibit the formation of nitrites, PGE2s, and neutral proteases, respectively, by 50% relative to the control group, that is, to the cells stimulated with IL-1β but without the addition of antagonists, is given for some of the compounds of the invention already given by way of example in Table 2.

The next series relates to formation of PGE2. Nature of the series: Inhibition of PGE2 formation in rabbit joint chondrocytes stimulated by IL-1β (RIA). Format: cell-based. Conditions: Oryctolagus cuniculus, Chondrocyte, IL-1β 1 ng/ml, 48 hours. On the procedure:
as §1, §2

Series [2] deals with neutral proteases (metalloproteases). Description: Inhibition of neutral proteases (metalloproteases) in supernatant of IL-1β-stimulated rabbit joint chondrocytes, azocoll substrate. It is filed as biochemical. Conditions: IL-1β 1 ng/ml, 48 hours, APMA-activated supernatant, read-out: MP (metalloproteases) IC50. On the procedure: as §1, §2

As a reminder, the IC50 is the concentration that gives 50% inhibition. Usually melting point stands for the temperature of the solid-liquid transition. Compound `CCCNC(=S)Nc1ccc(NC(C)=N)cc1` [Compound I-2] came in with a melting point of 188.1 to 189.1 °C. In series [1], this compound returned an IC50 of over 300 µM. The IC50 with formation of PGE2 is over 300 µM. Further, the IC50 in series [2] was 30 µM.

In the case of `CCCCCCCNC(=S)Nc1ccc(NC(C)=N)cc1` [Compound I-6], the melting point is 177.8 to 178.4 °C. This compound showed an IC50 in series [1] of 30 µM. The IC50 in the series with formation of PGE2 was 20 µM. For the same compound, the IC50 in series [2] worked out at 20 µM.
